What follows are molecules tested against T1, CDK2/CycE (Homo sapiens, UniProt P24941) (assay: CDK2/CycE kinase assay (TR-FRET, 2 mM ATP)). Conditions: 2 mM ATP (high ATP); median; read-out: CDK2/CyclinE, 2 mM ATP (high ATP), IC50 (median).
T1 construct: purchased ProQinase GmbH (Freiburg, Germany); host or cells: insect cells (Sf9)
Format: biochemical
Outline: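 Biotin-peptide phosphorylation (0.75 µM substrate, 2 mM ATP final, 25 min, 22 °C) by Sf9-expressed GST-CDK2/GST-CycE, after a 15-min compound pre-binding step. Inhibition scaled between enzyme-free (100%) and uninhibited (0%) wells.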

Structure (SMILES) | IC50 [µM]
Fc1cccc2[nH]c(CNc3nc(N4CCNCC4)nc4c(C5CC5)cnn34)nc12 [Example 182, 8-cyclopropyl-N-[(4-fluoro-1H-benzimidazol-2-yl)methyl]-2-(piperazin-1-yl)pyrazolo[1,5-a][1,3,5]triazin-4-amine] | > 20
CN(CCN1CCCC1)c1nc(NCc2nc3ccccc3[nH]2)n2ncc(Br)c2n1 [Example 239, N4-(1H-benzimidazol-2-ylmethyl)-8-bromo-N2-methyl-N2-(2-pyrrolidin-1-ylethyl)pyrazolo[1,5-a][1,3,5]triazine-2,4-diamine] | > 20
Fc1ccc2[nH]c(CNc3nc(N4CCNCC4)nc4c(C5CC5)cnn34)nc2c1F [Example 174, 8-cyclopropyl-N-[(4,5-difluoro-1H-benzimidazol-2-yl)methyl]-2-(piperazin-1-yl)pyrazolo[1,5-a][1,3,5]triazin-4-amine] | > 20
Brc1cnn2c(NCc3nc4ccccc4[nH]3)nc(NCCN3CCCC3)nc12 [Example 235, N4-(1H-benzimidazol-2-ylmethyl)-8-bromo-N2-(2-pyrrolidin-1-ylethyl)pyrazolo[1,5-a][1,3,5]triazine-2,4-diamine] | > 20
C[C@@H]1CN(c2nc(NCc3nc4c(F)cccc4[nH]3)n3ncc(C4CC4)c3n2)C[C@H](C)N1 [Example 186, 8-cyclopropyl-2-[(3R,5S)-3,5-dimethylpiperazin-1-yl]-N-[(4-fluoro-1H-benzimidazol-2-yl)methyl]pyrazolo[1,5-a][1,3,5]triazin-4-amine] | > 20
O=C1CN(c2nc(NCc3nc4ccccc4[nH]3)n3ncc(Br)c3n2)CCN1 [Example 167, 4-(4-{[(1H-benzimidazol-2-yl)methyl]amino}-8-bromopyrazolo[1,5-a][1,3,5]triazin-2-yl)piperazin-2-one] | 15.9
Cc1ccc2[nH]c(CNc3nc(N4C[C@@H]5CCCN[C@@H]5C4)nc4c(C5CC5)cnn34)nc2c1 [Example 195, 8-cyclopropyl-N-[(5-methyl-1H-benzimidazol-2-yl)methyl]-2-[(4aS,7aS)-octahydro-6H-pyrrolo[3,4-b]pyridin-6-yl]pyrazolo[1,5-a][1,3,5]triazin-4-amine] | > 20
CC(C)c1cnn2c(NCc3nc4ccccc4[nH]3)nc(Nc3ccccc3)nc12 [Example 13, N^4-[(1H-benzimidazol-2-yl)methyl]-N^2-phenyl-8-(propan-2-yl)pyrazolo[1,5-a][1,3,5]triazine-2,4-diamine] | > 20
Fc1cccc2[nH]c(CNc3nc(N4C[C@@H]5CCCN[C@@H]5C4)nc4c(C5CC5)cnn34)nc12 [Example 187, 8-cyclopropyl-N-[(4-fluoro-1H-benzimidazol-2-yl)methyl]-2-[(4aS,7aS)-octahydro-6H-pyrrolo[3,4-b]pyridin-6-yl]pyrazolo[1,5-a][1,3,5]triazin-4-amine] | > 20
Fc1ccc2[nH]c(CNc3nc(N4C[C@@H]5C[C@H]4CO5)nc4c(C5CC5)cnn34)nc2c1F [Example 173, 8-cyclopropyl-N-[(4,5-difluoro-1H-benzimidazol-2-yl)methyl]-2-[(1S,4S)-2-oxa-5-azabicyclo[2.2.1]heptan-5-yl]pyrazolo[1,5-a][1,3,5]triazin-4-amine] | > 20
CN1C[C@@H]2C[C@H]1CN2c1nc(NCc2nc3ccccc3[nH]2)n2ncc(Br)c2n1 [Example 219, N-[(1H-benzimidazol-2-yl)methyl]-8-bromo-2-[(1S,4S)-5-methyl-2,5-diazabicyclo[2.2.1]heptan-2-yl]pyrazolo[1,5-a][1,3,5]triazin-4-amine] | > 20
Fc1ccc2[nH]c(CNc3nc(N4C[C@@H]5CCCN[C@@H]5C4)nc4c(C5CC5)cnn34)nc2c1F [Example 171, 8-cyclopropyl-N-[(4,5-difluoro-1H-benzimidazol-2-yl)methyl]-2-[(4aS,7aS)-octahydro-6H-pyrrolo[3,4-b]pyridin-6-yl]pyrazolo[1,5-a][1,3,5]triazin-4-amine] | > 20
C[C@@H]1CN(c2nc(NCc3nc4cc(F)ccc4[nH]3)n3ncc(C4CC4)c3n2)C[C@H](C)N1 [Example 175, 8-cyclopropyl-2-[(3R,5S)-3,5-dimethylpiperazin-1-yl]-N-[(5-fluoro-1H-benzimidazol-2-yl)methyl]pyrazolo[1,5-a][1,3,5]triazin-4-amine] | > 20
CN(C)[C@H]1CCN(c2nc(NCc3nc4ccccc4[nH]3)n3ncc(Br)c3n2)C1 [Example 177, N-[(1H-benzimidazol-2-yl)methyl]-8-bromo-2-[(3S)-3-(dimethylamino)pyrrolidin-1-yl]pyrazolo[1,5-a][1,3,5]triazin-4-amine] | > 20
COc1cccc2[nH]c(CNc3nc(N4C[C@@H](C)N[C@@H](C)C4)nc4c(C5CC5)cnn34)nc12 [Example 212, 8-cyclopropyl-2-[(3R,5S)-3,5-dimethylpiperazin-1-yl]-N-[(4-methoxy-1H-benzimidazol-2-yl)methyl]pyrazolo[1,5-a][1,3,5]triazin-4-amine] | > 19
Fc1cccc2[nH]c(CNc3nc(N4C[C@@H]5C[C@H]4CO5)nc4c(C5CC5)cnn34)nc12 [Example 183, 8-cyclopropyl-N-[(4-fluoro-1H-benzimidazol-2-yl)methyl]-2-[(1S,4S)-2-oxa-5-azabicyclo[2.2.1]heptan-5-yl]pyrazolo[1,5-a][1,3,5]triazin-4-amine] | > 20

The next lines start with the values.

IC50 [µM] | Structure (SMILES)
13.4 | COc1cccc2[nH]c(CNc3nc(N4CCN(C)CC4)nc4c(C5CC5)cnn34)nc12 [Example 197, 8-cyclopropyl-N-[(4-methoxy-1H-benzimidazol-2-yl)methyl]-2-(4-methylpiperazin-1-yl)pyrazolo[1,5-a][1,3,5]triazin-4-amine]
4.63 | OC1(C(F)(F)F)CCN(c2nc(NCc3nc4ccccc4[nH]3)n3ncc(Br)c3n2)C1 (stereo not shown) [Example 200, 1-[4-(1H-benzimidazol-2-ylmethylamino)-8-bromo-pyrazolo[1,5-a][1,3,5]triazin-2-yl]-3-(trifluoromethyl)pyrrolidin-3-ol]
15.5 | CN1CC2CN(c3nc(NCc4nc5ccccc5[nH]4)n4ncc(Br)c4n3)CC2C1 (stereo not shown) [Example 240, N-(1H-benzimidazol-2-ylmethyl)-8-bromo-2-(2-methyl-1,3,3a,4,6,6a-hexahydropyrrolo[3,4-c]pyrrol-5-yl)pyrazolo[1,5-a][1,3,5]triazin-4-amine]
5.17 | Brc1cnn2c(NCc3nc4ccccc4[nH]3)nc(N3C[C@H]4CCCN[C@H]4C3)nc12 [Example 199, N-[(1H-benzimidazol-2-yl)methyl]-8-bromo-2-[(4aR, 7aR)-octahydro-6H-pyrrolo[3,4-b]pyridin-6-yl]pyrazolo[1,5-a][1,3,5]triazin-4-amine]
5.01 | CN1CC2CCC1CN2c1nc(NCc2nc3ccccc3[nH]2)n2ncc(Br)c2n1 (stereo not shown) [Example 221, N-(1H-benzimidazol-2-ylmethyl)-8-bromo-2-(5-methyl-2,5-diazabicyclo[2.2.2]octan-2-yl)pyrazolo[1,5-a][1,3,5]triazin-4-amine]
2.89 | OC1CCN(c2nc(NCc3nc4ccccc4[nH]3)n3ncc(Br)c3n2)CC1 [Example 17, 1-(4-{[(1H-benzimidazol-2-yl)methyl]amino}-8-bromopyrazolo[1,5-a][1,3,5]triazin-2-yl)piperidin-4-ol]
1.87 | CCNc1nc(NCc2nc3ccccc3[nH]2)n2ncc(Br)c2n1 [Example 227, N4-(1H-benzimidazol-2-ylmethyl)-8-bromo-N2-ethyl-pyrazolo[1,5-a][1,3,5]triazine-2,4-diamine]
6.29 | CN1CCN(c2nc(NCc3nc4ccccc4[nH]3)n3ncc(Br)c3n2)CC1 [Example 18, N-[(1H-benzimidazol-2-yl)methyl]-8-bromo-2-(4-methylpiperazin-1-yl)pyrazolo[1,5-a][1,3,5]triazin-4-amine]
12.4 | CN1CCCC2CN(c3nc(NCc4nc5ccccc5[nH]4)n4ncc(Br)c4n3)CC21 (stereo not shown) [Example 231, N-[(1H-benzimidazol-2-yl)methyl]-8-bromo-2-(1-methyloctahydro-6H-pyrrolo[3,4-b]pyridin-6-yl)pyrazolo[1,5-a][1,3,5]triazin-4-amine]
10.9 | Cc1ccc2[nH]c(CNc3nc(N4CCNCC4)nc4c(Br)cnn34)nc2c1 [Example 204, 8-bromo-N-[(5-methyl-1H-benzimidazol-2-yl)methyl]-2-(piperazin-1-yl)pyrazolo[1,5-a][1,3,5]triazin-4-amine]
9.94 | COc1cccc2[nH]c(CNc3nc(N4C[C@H]5C[C@@H]4CO5)nc4c(C5CC5)cnn34)nc12 [Example 198, 8-cyclopropyl-N-[(4-methoxy-1H-benzimidazol-2-yl)methyl]-2-[(1R,4R)-2-oxa-5-azabicyclo[2.2.1]heptan-5-yl]pyrazolo[1,5-a][1,3,5]triazin-4-amine]
8.98 | Brc1cnn2c(NCc3nc4ccccc4[nH]3)nc(N3CCC4(CCCN4)C3)nc12 (stereo not shown) [Example 215, N-(1H-benzimidazol-2-ylmethyl)-8-bromo-2-(1,7-diazaspiro[4.4]nonan-7-yl)pyrazolo[1,5-a][1,3,5]triazin-4-amine]
14.6 | CO[C@H]1CCN(c2nc(NCc3nc4ccccc4[nH]3)n3ncc(Br)c3n2)C1 [Example 222, N-[(1H-benzimidazol-2-yl)methyl]-8-bromo-2-[(3S)-3-methoxypyrrolidin-1-yl]pyrazolo[1,5-a][1,3,5]triazin-4-amine]
10.1 | COCCNc1nc(NCc2nc3ccccc3[nH]2)n2ncc(Br)c2n1 [Example 230, N4-(1H-benzimidazol-2-ylmethyl)-8-bromo-N2-(2-methoxyethyl)pyrazolo[1,5-a][1,3,5]triazine-2,4-diamine]
8.56 | COc1cccc2[nH]c(CNc3nc(N4CCNCC4)nc4c(C5CC5)cnn34)nc12 [Example 211, 8-cyclopropyl-N-[(4-methoxy-1H-benzimidazol-2-yl)methyl]-2-(piperazin-1-yl)pyrazolo[1,5-a][1,3,5]triazin-4-amine]

— US20230117034A1, “PYRAZOLOTRIAZINES” (Bayer Aktiengesellschaft, priority 2019, published 2023)
